Data from patent publication US20090197878A1, “SUBSTITUTED BENZO[d][1,3]OXAZIN-2(4H)-ONES AND RELATED DERIVATIVES AND THEIR USES FOR MODULATING THE PROGESTERONE RECEPTOR” (Wyeth, priority 2008, published 2009).

How the values were obtained:
[1] = tested on: alkaline phosphatase activity in T47D cells; test: Effects of progestins and antiprogestins on alkaline phosphatase activity in T47D cells; assay type: cell-based; conditions: Homo sapiens; for IC50: antagonist mode in the presence of 1 nM progesterone, 24 hours
Description: The purpose of this example is to identify progestins or antiprogestins by determining a compound's effect on alkaline phosphatase activity in T47D cells.
A. Reagents: • Culture medium: Dulbecco's Modified Eagle Medium (DMEM):F12 (1:1) (GIBCO, BRL) supplemented with 5% (v/v) charcoal stripped fetal bovine serum (not heat-inactivated), 100 U/mL penicillin, 100 μg/mL streptomycin, and 2 mM of the GlutaMax® reagent (GIBCO, BRL). • Alkaline phosphatase assay buffer: • I. 0.1M Tris-HCl, pH 9.8, containing 0.2% Triton® X-100 reagent • II. 0.1M Tris-HCl, pH 9.8, containing 4 mM p-nitrophenyl phosphate (Sigma).
Frozen T47D cells are thawed in a 37° C. water bath and diluted to 280,000 cells/mL in culture medium. To each well in a 96-well plate (Falcon, Becton Dickinson Labware), was added 180 μL of diluted cell suspension. Twenty μL of reference or test compounds diluted in the culture medium is then added to each well. When testing for progestin antagonist activity, reference antiprogestins or test compounds are added in the presence of 1 nM progesterone. The cells are incubated at 37° C. in a 5% CO2/humidified atmosphere for 24 hours. For high throughput screening, one concentration of each compound will be tested at 0.3 μg/mL. Based on an average molecular weight of 300 g/mol for the compounds in the library, the concentration is approximately 1 μM. Compounds active in this assay can be tested in dose response assays to determine EC50 and IC50.
C. Alkaline Phosphatase Enzyme Assay: • At the end of treatment, the medium is removed from the plate. Fifty μL of assay buffer I is added to each well. The plates are shaken in a titer plate shaker for 15 minutes. Then 150 μL of assay buffer II is added to each well. Optical density measurements are taken at 5 minute intervals for 30 minutes at a test wavelength of 405 nm.
D. Analysis of Results: Analysis of Dose-Response Data • For reference and test compounds, a dose response curve is generated for dose (X-axis) vs. the rate of enzyme reaction (slope) (Y-axis). Square root-transformed data are used for analysis of variance and nonlinear dose response curve fitting for both agonist and antagonist modes. Huber weighting is used to down-weight the effects of outliers. EC50 or IC50 values are calculated from the retransformed values. JMP® software (SAS Institute, Inc.) is used for both one-way analysis of variance and non-linear dose response analysis in both single dose and dose response studies.
E. Reference Compounds • Progesterone and trimegestone are reference progestins and RU486 is the reference antiprogestin. All reference compounds are run in full dose response curves and the EC50 and IC50 values are calculated.

[2] = target: T1, progesterone receptor (PR) (Homo sapiens, UniProt P06401); test: Progesterone receptor whole cell competition binding assay using T47D cells; conditions: intact T47D cells, 3 nM 3H-progesterone, 3 hours at 37° C.
T1 construct: in live, intact (whole) cells, using the human breast carcinoma T47D cell line; endogenous in cells; host or cells: T47D human breast carcinoma cells
T1 sequence (P06401 1-933): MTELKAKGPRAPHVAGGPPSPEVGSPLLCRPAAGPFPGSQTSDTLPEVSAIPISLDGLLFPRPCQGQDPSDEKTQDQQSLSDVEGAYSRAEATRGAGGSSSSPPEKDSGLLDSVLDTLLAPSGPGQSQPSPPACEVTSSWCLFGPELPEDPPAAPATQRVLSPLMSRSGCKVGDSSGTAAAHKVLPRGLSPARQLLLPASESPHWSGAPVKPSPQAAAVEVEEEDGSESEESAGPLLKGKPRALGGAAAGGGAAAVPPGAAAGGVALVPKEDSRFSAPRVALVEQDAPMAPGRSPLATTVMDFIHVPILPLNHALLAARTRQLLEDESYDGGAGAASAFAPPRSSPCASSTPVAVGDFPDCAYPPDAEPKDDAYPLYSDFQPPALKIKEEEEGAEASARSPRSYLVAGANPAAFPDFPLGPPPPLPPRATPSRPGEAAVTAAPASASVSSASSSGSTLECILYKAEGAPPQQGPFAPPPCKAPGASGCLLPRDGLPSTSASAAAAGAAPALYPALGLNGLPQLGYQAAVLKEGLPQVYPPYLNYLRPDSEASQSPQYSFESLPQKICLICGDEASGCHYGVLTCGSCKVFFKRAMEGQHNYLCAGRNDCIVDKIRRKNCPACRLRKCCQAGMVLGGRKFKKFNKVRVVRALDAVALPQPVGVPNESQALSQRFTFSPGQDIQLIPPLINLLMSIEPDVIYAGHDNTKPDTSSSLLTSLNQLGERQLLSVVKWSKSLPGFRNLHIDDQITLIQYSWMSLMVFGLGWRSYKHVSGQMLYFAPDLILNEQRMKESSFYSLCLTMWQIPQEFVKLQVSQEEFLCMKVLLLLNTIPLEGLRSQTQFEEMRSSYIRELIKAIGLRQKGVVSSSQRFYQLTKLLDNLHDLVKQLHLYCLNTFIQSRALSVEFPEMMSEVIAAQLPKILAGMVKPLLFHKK
Description: The purpose of this example is to evaluate the progesterone receptor (PR) binding activity of progestins or antiprogestins in live, intact (whole) cells, using the human breast carcinoma T47D cell line and ^3H-progesterone as the labeled ligand.
A. Reagents: • Culture medium: • (i) 5% RC which is phenol red free Dulbecco's Modified Eagles Medium (DMEM):F12 (1:1) (GIBCO, BRL) supplemented with 5% (v/v) charcoal stripped fetal bovine serum (not heat-inactivated), 100 U/mL penicillin, 100 μg/mL streptomycin, and 2 mM of the GlutaMax™ reagent (GIBCO, BRL) • (ii) 10% RC is 5% RC supplemented with 10% (v/v) FBS • ^3H-Progesterone: Perkin Elmer Life Science, cat# NET-381 (typically around 102 Ci/mmol) • Liquid Scintillation Cocktail: Beckman Coulter, the Ready-Safe™ reagent; cat# 141349 • Tissue Culture Plates: 96 well, clear bottom, white, plates (VWR Part # 29443-150 or Perkin Elmer Part # 3983498)
B. T47D Cell Culture: • T47D cells are maintained in 10% RC media at 37° C. in a 5% CO2/humidified atmosphere and need to be split twice weekly for proper response. Cells are plated in 10% RC the day before binding assay at 50,000 cells per well in the white, clear bottom plates purchased through VWR or Perkin Elmer.
Cells plated the day prior to the assay in white clear bottom plates are used. A master compound plate is set up containing control and test compounds at 20X final desired concentration for the competition binding. A typical dose range of 20X concentrations are (in nM); 200,000; 20,000; 6000; 2000; 600; 200; 20; and 2. Final concentrations are then (in nM); 10,000; 1000; 300; 100; 30; 10; 1; 0.1. Control compounds are typically run 10-fold lower than this and include a 0, or vehicle, control well. A stock of 60 nM ^3H-progesterone (20X) is also prepared at a volume needed of 10 μL per well.
Media on cells are replaced with 180 μL of 5% RC. Ten microliters (10 μL) of 60 nM ^3H-progesterone (for final concentration of 3 nM) is added immediately followed by 10 μL of 20X test or control compounds. Compounds are incubated for 3 hours at 37° C. A time course study found no difference between 2 and 4 hours incubation.
Following incubation, media is carefully removed and cells are washed 3X with 200 μL 5% RC each wash. Fifty microliters of liquid scintillation cocktail is added and the plates are shaken vigorously for a minimum of 15 minutes. Plates are read on the Wallac Microbeta® 1450 plate reader.
D. Analysis of Results: • Square root-transformed data are used for analysis of variance and calculation of IC50. SAS software (SAS Institute, Inc.) is used for all the statistical analysis.
E. Reference Compounds: • Progesterone is used as a reference progestin and RU486 as a reference antiprogestin.

IC50 [1] [nM] | IC50 [2] [nM] | melting point [°C] | Structure (SMILES) | inhibition at 3 µM ([1]; at 3000 nM, in the presence of 1 nM progesterone) [%] | inhibition at 0.03 µM ([1]; at 30 nM, in the presence of 1 nM progesterone) [%] | inhibition at 0.3 µM ([1]; at 300 nM, in the presence of 1 nM progesterone) [%]
29.2 | 52.8 | 135 to 136 | CC/C(=C\C#N)c1ccc2c(c1)C(CC)(CC)OC(=O)N2 [Example 23, (2E)-3-(4,4-Diethyl-2-oxo-1,4-dihydro-2H-3,1-benzoxazin-6-yl)pent-2-enenitrile] | – | – | –
16.1 | 49.2 | 121 to 124 | CCC/C(=C\C#N)c1ccc2c(c1)C(CC)(CC)OC(=O)N2 [Example 25, (2E)-3-(4,4-Diethyl-2-oxo-1,4-dihydro-2H-3,1-benzoxazin-6-yl)hex-2-enenitrile] | – | – | –
208 | 1420 | 138 to 140 | CCC1(CC)OC(=O)Nc2ccc(/C(=C/C#N)C(C)C)cc21 [Example 27, (2E)-3-(4,4-Diethyl-2-oxo-1,4-dihydro-2H-3,1-benzoxazin-6-yl)-4-methylpent-2-enenitrile] | – | – | –
– | 89.8 | – | CC/C(=C\C#N)c1ccc2c(c1)C(C)(C)OC(=O)N2 [Example 28, (2E)-3-(4,4-Dimethyl-2-oxo-1,4-dihydro-2H-3,1-benzoxazin-6-yl)pent-2-enenitrile] | – | 70 | –
– | 104 | – | CCC/C(=C\C#N)c1ccc2c(c1)C(C)(C)OC(=O)N2 [Example 29, (2E)-3-(4,4-Dimethyl-2-oxo-1,4-dihydro-2H-3,1-benzoxazin-6-yl)hex-2-enenitrile] | – | – | 84
84.6 | 777 | – | CC(C)/C(=C\C#N)c1ccc2c(c1)C(C)(C)OC(=O)N2 [Example 30, (2E)-3-(4,4-Dimethyl-2-oxo-1,4-dihydro-2H-3,1-benzoxazin-6-yl)-4-methylpent-2-enenitrile] | – | – | –

More lines, now with the values behind:

Structure (SMILES) | IC50 [1] [nM] | IC50 [2] [nM] | melting point [°C] | inhibition at 3 µM ([1]; at 3000 nM, in the presence of 1 nM progesterone) [%] | inhibition at 0.03 µM ([1]; at 30 nM, in the presence of 1 nM progesterone) [%] | inhibition at 0.3 µM ([1]; at 300 nM, in the presence of 1 nM progesterone) [%]
CC1(C)OC(=O)Nc2ccc(/C(=C/C#N)c3ccccc3)cc21 [Example 6, (2E)-3-(4,4-Dimethyl-2-oxo-1,4-dihydro-2H-3,1-benzoxazin-6-yl)-3-phenylacrylonitrile] | 80.3 | 82.5 | 205 to 206 | – | – | –
COC(=O)/C=C(\C)c1ccc2c(c1)C(C)(C)OC(=O)N2 [Example 9, Methyl(2E)-3-(4,4-dimethyl-2-oxo-1,4-dihydro-2H-3,1-benzoxazin-6-yl)but-2-enoate] | 61.8 | 84.8 | 131 to 132 | – | – | –
C/C(=C/C#N)c1ccc2c(c1)C(C)(C)OC(=O)N2 [Example 12, (2Z)-3-(4,4-Dimethyl-2-oxo-1,4-dihydro-2H-3,1-benzoxazin-6-yl)but-2-enenitrile] | – | 1390 | 213 to 215 | 25 | – | –
C/C(=C\C#N)c1ccc2c(c1)C(C)(C)OC(=O)N2 [Example 13, (2E)-3-(4,4-Dimethyl-2-oxo-1,4-dihydro-2H-3,1-benzoxazin-6-yl)but-2-enenitrile] | 38.2 | 48.1 | 230 to 232 | – | – | –
CCC/C(=C\C#N)c1ccc2c(c1)C1(CCCCC1)OC(=O)N2 [Example 20, (2E)-3-(2-Oxo-1,2-dihydrospiro[3,1-benzoxazine-4,1′-cyclohexan]-6-yl)hex-2-enenitrile] | 55.7 | 46.5 | – | – | – | –
CCC1(CC)OC(=O)Nc2ccc(/C(C)=C/C#N)cc21 [Example 22, (2E)-3-(4,4-Diethyl-2-oxo-1,4-dihydro-2H-3,1-benzoxazin-6-yl)but-2-enenitrile] | 49.6 | 150 | 159 to 160 | – | – | –
